The values below come from patent US20250134146A1, “FLAVANONE COMPOUNDS AND THEIR USE AS FLAVOR MODIFIERS” (Firmenich Incorporated, priority 2022, published 2025).

Molecules are shown by their SMILES.

The target of one assay is T1, T1R sweet taste receptor (Homo sapiens, UniProt Q7RTX0+Q8TE23).
T1 construct: expressed in transfected cells
T1 sequence (Q8TE23 20-839): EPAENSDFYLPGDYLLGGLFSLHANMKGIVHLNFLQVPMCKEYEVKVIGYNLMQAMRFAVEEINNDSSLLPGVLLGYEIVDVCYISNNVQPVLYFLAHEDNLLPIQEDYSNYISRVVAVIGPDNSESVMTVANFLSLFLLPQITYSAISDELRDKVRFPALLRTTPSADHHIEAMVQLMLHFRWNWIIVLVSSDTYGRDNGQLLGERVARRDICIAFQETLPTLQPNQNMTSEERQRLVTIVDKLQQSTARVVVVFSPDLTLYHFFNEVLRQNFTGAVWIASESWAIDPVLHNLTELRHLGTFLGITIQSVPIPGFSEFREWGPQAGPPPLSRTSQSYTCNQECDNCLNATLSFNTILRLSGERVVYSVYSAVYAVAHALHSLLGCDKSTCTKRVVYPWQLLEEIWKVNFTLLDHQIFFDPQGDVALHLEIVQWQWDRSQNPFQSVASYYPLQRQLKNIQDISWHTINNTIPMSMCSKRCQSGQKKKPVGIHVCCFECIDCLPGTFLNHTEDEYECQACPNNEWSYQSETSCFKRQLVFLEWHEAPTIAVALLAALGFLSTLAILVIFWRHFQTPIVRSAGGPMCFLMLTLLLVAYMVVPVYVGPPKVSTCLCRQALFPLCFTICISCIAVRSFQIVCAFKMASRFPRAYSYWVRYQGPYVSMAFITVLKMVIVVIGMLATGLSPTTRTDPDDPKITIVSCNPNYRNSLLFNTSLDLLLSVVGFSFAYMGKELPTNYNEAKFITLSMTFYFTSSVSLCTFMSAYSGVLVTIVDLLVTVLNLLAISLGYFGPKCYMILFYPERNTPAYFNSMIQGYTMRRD
T1 sequence (Q7RTX0 21-852): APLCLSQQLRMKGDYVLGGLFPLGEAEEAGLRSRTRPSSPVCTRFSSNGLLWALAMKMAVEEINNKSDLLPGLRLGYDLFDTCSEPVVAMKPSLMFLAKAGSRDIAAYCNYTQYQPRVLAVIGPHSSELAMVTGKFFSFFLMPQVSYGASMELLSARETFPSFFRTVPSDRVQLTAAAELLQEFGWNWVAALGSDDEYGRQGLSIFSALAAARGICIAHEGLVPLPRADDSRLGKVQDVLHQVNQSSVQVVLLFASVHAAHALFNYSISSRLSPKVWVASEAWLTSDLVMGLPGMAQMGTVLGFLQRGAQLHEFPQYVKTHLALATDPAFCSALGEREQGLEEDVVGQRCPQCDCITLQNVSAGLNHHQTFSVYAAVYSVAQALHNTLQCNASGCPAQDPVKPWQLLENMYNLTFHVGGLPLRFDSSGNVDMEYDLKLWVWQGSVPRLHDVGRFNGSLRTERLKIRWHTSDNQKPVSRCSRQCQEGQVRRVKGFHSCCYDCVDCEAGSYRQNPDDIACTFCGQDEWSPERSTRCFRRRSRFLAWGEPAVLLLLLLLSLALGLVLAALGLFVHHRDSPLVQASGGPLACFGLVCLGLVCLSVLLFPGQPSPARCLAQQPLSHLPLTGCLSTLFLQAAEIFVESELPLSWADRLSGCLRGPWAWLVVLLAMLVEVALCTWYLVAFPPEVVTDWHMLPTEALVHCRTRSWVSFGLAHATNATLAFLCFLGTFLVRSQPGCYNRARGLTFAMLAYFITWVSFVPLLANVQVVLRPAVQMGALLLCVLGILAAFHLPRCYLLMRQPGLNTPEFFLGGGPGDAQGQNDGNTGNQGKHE
As to the kind of experiment: in vitro cell-based assay, cells overexpressing the T1R sweet taste receptor; sweet dose-response curves. As to conditions: cells that overexpress the T1R sweet taste receptor; calculated from sweet dose-response curves. How it is done:
Each of Compounds 101-107, 113, and 117-129 was either synthesized or separated from the corresponding synthetic racemate. Thereafter, the compounds were tested in an in vitro cell-based assay having cells that overexpress the T1R sweet taste receptor. The sweet dose-response curves were recorded and the EC50 was calculated. Table 4 sets forth the calculated EC50 values for the compounds tested.

The test system of assay [1] is Human Panelists. Nature of the assay: sensory evaluation of sweetness of 6% sucrose solution containing Compound at its Threshold Concentration, relative to pure sucrose solutions. The assay is classed as in vivo. As to conditions: 6% sucrose solution plus Compound at its Threshold Concentration, compared with pure sucrose solutions. An excerpt:
(§1) Test samples containing selected experimental compounds were sensory evaluated for sweetness intensity relative to 1.5% sucrose solution by a trained sensory panel of at least 8 panelists. The highest concentration of a Compound which panelists determined to be less sweet than 1.5% sucrose solution was set as its Threshold Concentration (TC). Next, panelists evaluated the sweetness of 6% sucrose solution containing each Compound at its Threshold Concentration (TC), relative to pure sucrose solutions at varying concentrations. Table 5 summarizes the sensory evaluation data for compounds 101,102, 105, 107 and 122-125, 127, 128.

Assay [2] concerns Human Panelists. Nature of the assay: sensory evaluation of sweetness intensity relative to 1.5% sucrose solution (Threshold Concentration). The format is in vivo. Particulars: highest concentration judged less sweet than 1.5% sucrose solution, trained sensory panel of at least 8 panelists.
Excerpt: as §1

For the compound `COC1C(=O)c2c(O)cccc2OC1c1ccc(O)cc1` (stereo not drawn) [Compound 104, (trans)-5-hydroxy-2-(4-hydroxyphenyl)-3-methoxychroman-4-one], the EC50 (commonly the midpoint of the concentration-response curve) at T1R sweet taste receptor is 4 µM.

Turning to `COc1ccc([C@H]2Oc3cccc(O)c3C(=O)[C@@H]2OC)cc1O` (stereo in doubt) [Compound 126, (+)-(trans)-5-hydroxy-2-(3-hydroxy-4-methoxyphenyl)-3-methoxychroman-4-one], the EC50 at T1R sweet taste receptor was 0.03 µM.

As to `CO[C@@H]1C(=O)c2c(O)cc(O)cc2O[C@H]1c1ccc(O)cc1` (relative stereo) [Compound 125, (−)-(trans)-5,7-dihydroxy-2-(4-hydroxyphenyl)-3-methoxychroman-4-one], the EC50 on T1R sweet taste receptor was above 100 µM.

As for `COc1ccc([C@@H]2Oc3cccc(O)c3C(=O)[C@H]2OC)cc1O` (racemic) [Compound 105, (trans)-5-hydroxy-2-(3-hydroxy-4-methoxyphenyl)-3-methoxychroman-4-one], the EC50 on T1R sweet taste receptor is 0.1 µM. Moreover, the “Sucrose concentration of equal sweetness to (6% sucrose + Compound at its TC)” value in the assay on Human Panelists [1] is listed as at least 7.5%. The “Threshold Concentration (TC) - less sweet than 1.5% sucrose” value in the assay with Human Panelists [2] was 1.5 ppm; with Human Panelists [2] (value in brackets) it was 4.8 µM.

In the case of `COc1cc(O)c2c(c1)O[C@@H](c1ccc(OC)c(O)c1)[C@H](OC)C2=O` (relative stereo) [Compound 113, (trans)-5-hydroxy-2-(3-hydroxy-4-methoxyphenyl)-3,7-dimethoxychroman-4-one], the concentration for a half-maximal effect (EC50) at T1R sweet taste receptor is 25 µM.

Turning to `CO[C@@H]1C(=O)c2ccc(O)cc2O[C@H]1c1ccc(O)cc1` (relative stereo) [Compound 106, (trans)-7-hydroxy-2-(4-hydroxyphenyl)-3-methoxychroman-4-one], the concentration for a half-maximal effect (EC50) on T1R sweet taste receptor is 92 µM.

For `CO[C@@H]1C(=O)c2c(O)cc(O)cc2O[C@H]1c1ccc(O)cc1` (racemic) [Compound 101, (trans)-5,7-dihydroxy-2-(4-hydroxyphenyl)-3-methoxychroman-4-one], the “Sucrose concentration of equal sweetness to (6% sucrose + Compound at its TC)” value in the assay with Human Panelists [1] is at least 7.5%. Moreover, the “Threshold Concentration (TC) - less sweet than 1.5% sucrose” value in the assay on Human Panelists [2] is 11 ppm; with Human Panelists [2] (value in brackets), 36 µM.

With `COc1ccc([C@@H]2Oc3cc(O)ccc3C(=O)[C@H]2OC)cc1O` (relative stereo) [Compound 129, (−)-(trans)-7-hydroxy-2-(3-hydroxy-4-methoxyphenyl)-3-methoxychroman-4-one], at T1R sweet taste receptor, the half-maximal effective concentration (EC50) is above 200 µM.

For `CO[C@H]1C(=O)c2c(O)cc(O)cc2O[C@@H]1c1ccc(O)cc1` (stereo in doubt) [Compound 124, (+)-(trans)-5,7-dihydroxy-2-(4-hydroxyphenyl)-3-methoxychroman-4-one], the EC50 on T1R sweet taste receptor is 10 µM. Moreover, in the assay on Human Panelists [1], the “Sucrose concentration of equal sweetness to (6% sucrose + Compound at its TC)” value is at least 8.0%. Besides, the “Threshold Concentration (TC) - less sweet than 1.5% sucrose” value in the assay with Human Panelists [2] turned out to be 5 ppm; with Human Panelists [2] (value in brackets), 16 µM.

Consider `CCO[C@@H]1C(=O)c2c(O)cc(O)cc2O[C@H]1c1ccc(OC)c(O)c1` (relative stereo) [Compound 117, (trans)-5,7-dihydroxy-2-(3-hydroxy-4-methoxyphenyl)-3-ethoxychroman-4-one], for which the half-maximal effective concentration (EC50) on T1R sweet taste receptor is 1 µM.

For the compound `COc1ccc([C@@H]2Oc3cc(O)ccc3C(=O)[C@H]2OC)cc1O` (racemic) [Compound 107, (trans)-7-hydroxy-2-(3-hydroxy-4-methoxyphenyl)-3-methoxychroman-4-one], the concentration for a half-maximal effect (EC50) at T1R sweet taste receptor was 7 µM. Besides, the “Sucrose concentration of equal sweetness to (6% sucrose + Compound at its TC)” value in the assay with Human Panelists [1] was at least 7.5%. Also, the “Threshold Concentration (TC) - less sweet than 1.5% sucrose” value in the assay on Human Panelists [2] amounted to 11 ppm; with Human Panelists [2] (value in brackets), 35 µM.

Take `COc1ccc([C@H]2Oc3cc(O)cc(O)c3C(=O)[C@@H]2OC)cc1O` (single isomer, unassigned) [Compound 122, (+)-(trans)-5,7-dihydroxy-2-(3-hydroxy-4-methoxyphenyl)-3-methoxychroman-4-one]: the 50% effective concentration (EC50) on T1R sweet taste receptor was 0.7 µM. In the assay on Human Panelists [1], the “Sucrose concentration of equal sweetness to (6% sucrose + Compound at its TC)” value is on record as ≥8.0%,. In addition, the “Threshold Concentration (TC) - less sweet than 1.5% sucrose” value in the assay with Human Panelists [2] came out at 2.5 ppm; in the assay with Human Panelists [2] (value in brackets), 7.5 µM.

`COc1ccc([C@@H]2Oc3cccc(O)c3C(=O)[C@H]2OC)cc1O` (relative stereo) [Compound 127, (−)-(trans)-5-hydroxy-2-(3-hydroxy-4-methoxyphenyl)-3-methoxychroman-4-one]: on T1R sweet taste receptor, the EC50 was 1 µM.

`CCOC1C(=O)c2ccc(O)cc2OC1c1ccc(OC)c(O)c1` (stereo not drawn) [Compound 120, (tans)-7-hydroxy-2-(3-hydroxy-4-methoxyphenyl)-3-ethoxychroman-4-one]: the EC50 on T1R sweet taste receptor was 8 µM.

With `COc1ccc([C@@H]2Oc3cc(O)cc(O)c3C(=O)[C@H]2OC)cc1O` (racemic) [Compound 102, (trans)-5,7-dihydroxy-2-(3-hydroxy-4-methoxyphenyl)-3-methoxychroman-4-one], at T1R sweet taste receptor, the EC50 was 1 µM. The “Sucrose concentration of equal sweetness to (6% sucrose + Compound at its TC)” value in the assay on Human Panelists [1] is at least 7.5%. Further, the “Threshold Concentration (TC) - less sweet than 1.5% sucrose” value in the assay on Human Panelists [2] was 4 ppm; with Human Panelists [2] (value in brackets) it was 12 µM.

Regarding `CCO[C@@H]1C(=O)c2c(O)cccc2O[C@H]1c1ccc(OC)c(O)c1` (relative stereo) [Compound 119, (trans)-5-hydroxy-2-(3-hydroxy-4-methoxyphenyl)-3-ethoxychroman-4-one], the EC50 on T1R sweet taste receptor is 0.4 µM.

As to `CCO[C@@H]1C(=O)c2c(O)cc(O)cc2O[C@H]1c1ccc(O)cc1` (relative stereo) [Compound 118, (trans)-5,7-dihydroxy-2-(4-hydroxyphenyl)-3-ethoxychroman-4-one], the EC50 at T1R sweet taste receptor was 30 µM.

With `COc1ccc([C@H]2Oc3cc(O)ccc3C(=O)[C@@H]2OC)cc1O` (stereo in doubt) [Compound 128, (+)-(trans)-7-hydroxy-2-(3-hydroxy-4-methoxyphenyl)-3-methoxychroman-4-one], the EC50 at T1R sweet taste receptor is 9 µM. Besides, the “Sucrose concentration of equal sweetness to (6% sucrose + Compound at its TC)” value in the assay on Human Panelists [1] is at least 8.0%. The “Threshold Concentration (TC) - less sweet than 1.5% sucrose” value in the assay with Human Panelists [2] was 5 ppm; in the assay on Human Panelists [2] (value in brackets), 16 µM.

`CO[C@@H]1C(=O)c2c(O)cc(O)cc2O[C@H]1c1cc(O)c(O)c(O)c1` (relative stereo) [Compound 121, (trans)-2-(3,4,5-trihydroxyphenyl)-5,7-dihydroxy-3-methoxychroman-4-one]: the EC50 at T1R sweet taste receptor is 180 µM.
